Columns and labels:
[1] = tested on: inflammation following cataract surgery; test: Clinical dose ranging study after cataract surgery: resolution of anterior chamber (AC) cells and flare; assay type: in vivo, human
Source text: (§1) There were 8 treatment groups in this study, consisting of three drug doses, vehicle and three dosing frequencies (see also Table 4-1): • Group A: 1% BOL-303242-X ophthalmic suspension, two times per day (BID) • Group B: 2% BOL-303242-X ophthalmic suspension, one time per day (QD) • Group C: 2% BOL-303242-X ophthalmic suspension, BID • Group D: 2% BOL-303242-X ophthalmic suspension, four times per day (QID) • Group E: 3% BOL-303242-X ophthalmic suspension, QD • Group F: 3% BOL-303242-X ophthalmic suspension, BID • Group G: 3% BOL-303242-X ophthalmic suspension, QID • Group H: Vehicle for BOL-303242-X (divided equally into QID, BID, and QD)
At Visit 3 (postoperative Day 1, 18 to 34 hours following surgery), subjects meeting all eligibility criteria were randomized to one of the treatment groups continuing to be studied, including vehicle, in a 1:1 ratio.
(§2) Subjects self-administered study drug, instilling 1 to 2 drops of study drug into the study eye: QID at approximately 4 hour intervals, BID at approximately 12 hour intervals, or QD once in the morning, for 14 days. The initial dose occurred in the clinic at Visit 3 and the final dose was on the day before Visit 6 (postoperative Day 15±1 day). Subjects were examined and evaluated according to the following schedule:
Visit 1 (screening), Visit 2 (cataract surgery), Visit 3 (postoperative Day 1), Visit 4 (postoperative Day 3±1 day), Visit 5 (postoperative Day 8±1 day), Visit 6 (postoperative Day 15±1 day), Visit 7 (postoperative Day 18±1 day). Subject assessments included adverse events (AEs), concomitant medications, ocular symptoms, pinholed Snellen visual acuity (VA), intraocular pressure (IOP), ocular signs (biomicroscopy), fundoscopy, and study drug drop sensation. In addition, subject diaries were collected and reviewed for accuracy and treatment compliance.
Among other criteria for inclusion in this study, subjects were those who: • were to be at least 18 years of age on the date the informed consent form (“ICF”) was signed and with the capacity to voluntarily provide consent; • were candidates for routine, uncomplicated cataract surgery (phacoemulsification with posterior chamber intraocular lens (“IOL”) implantation, not combined with any other surgery) in the study eye; • in the Investigator's opinion, had potential postoperative pinholed Snellen visual acuity (“VA”) of at least 20/200 or pinholed Decimal VA of 0.1 in the study eye; • had undergone routine, uncomplicated cataract surgery (phacoemulsification with posterior chamber IOL implantation, not combined with any other surgery) in the study eye; and • had ≧Grade 2 anterior chamber (“AC”) cells in the study eye.
Primary Efficacy: The primary efficacy endpoint for this study was the proportion of subjects with complete resolution of AC cells at Visit 5 (postoperative Day 8). Complete resolution of AC cells is defined as Grade 0 cells.
Secondary Efficacy: The secondary efficacy endpoints for this study were the proportions of subjects with Grade 0 pain at Visit 5 (postoperative Day 8) and at each visit, complete resolution of AC cells at each visit, complete resolution of AC cells and flare at each visit, complete resolution of AC flare at each visit, change from baseline to each follow-up visit in AC cells and AC flare combined and separately, ocular symptoms.

[2] = tested on: intraocular pressure (IOP); test: Clinical dose ranging study after cataract surgery: intraocular pressure (safety); assay type: in vivo, human
Source text: as §1, §2
Visit 1 (screening), Visit 2 (cataract surgery), Visit 3 (postoperative Day 1), Visit 4 (postoperative Day 3±1 day), Visit 5 (postoperative Day 8±1 day), Visit 6 (postoperative Day 15±1 day), Visit 7 (postoperative Day 18±1 day). […]

[3] = tested on: COX-2; test: COX-2 protein in IL-1β-induced human conjunctival fibroblasts (Western blot); assay type: cell-based; conditions: 2 h pretreatment, then 24 h with IL-1β
Procedure: Cells were washed with ice-cold PBS and lysed in cell lysis buffer (62.5 mM Tris-HCl, pH 6.8, 2% sodium dodecyl sulfate (SDS), 10% glycerol). Cells were sonicated, and centrifuged at 12.000 rpm and protein concentration was determined using the Micro BCA protein assay kit. Proteins in aliquots of cell lysate (˜20 μg protein) were separated by SDS-polyacrylamide electrophoresis (SDS-PAGE) on 10% gels and transferred to PVDF membranes. Membranes were blocked with 5% BSA and exposed to mouse anti-COX-2 antibody (Caymen). The blots were washed, and exposed to horseradish peroxidase-conjugated anti-mouse secondary antibody. After washing, blots were incubated in ECL (enhanced chemiluminescence) solutions and chemiluminescent bands were visualized using the FluorChem imaging system (AlphaInnotech, San Leandro, Calif.). Blots were then stripped and re-probed for glyceraldehyde 3-phosphate dehydrogenase (GAPDH) (Zymed) antibody as loading controls. The experiment was repeated 3 times. Analysis of Western blot band density for COX-2 and GAPDH in captured digital images was done using the Alpha-Innotech Chemi-Imager software (Alpha Innotech; San Leandro, Calif.). Levels of COX-2 protein were normalized to GAPDH.

[4] = 1% BID, Visit 5 (postoperative Day 8)
[5] = 1% BID, Visit 7 (postoperative Day 18)
[6] = 2% QD, Visit 5 (postoperative Day 8)
[7] = 2% QID, Visit 5 (postoperative Day 8)
[8] = 2% QID, Visit 6 (postoperative Day 15)
[9] = 2% QID, Visit 7 (postoperative Day 18)
[10] = 3% BID, Visit 5 (postoperative Day 8)
[11] = 3% BID, Visit 6 (postoperative Day 15)
[12] = 3% BID, Visit 7 (postoperative Day 18)
[13] = 3% QD, Visit 5 (postoperative Day 8)
[14] = 3% QD, Visit 6 (postoperative Day 15)
[15] = 3% QD, Visit 7 (postoperative Day 18)
[16] = 3% QID, Visit 5 (postoperative Day 8)
[17] = 3% QID, Visit 6 (postoperative Day 15)
[18] = 3% QID, Visit 7 (postoperative Day 18)

## Cc1ccc2c(NCC(O)(CC(C)(C)c3cc(F)cc4c3OCC4)C(F)(F)F)cccc2n1 (stereo not shown) [BOL-303242-X]
[1]; 1% BID (printed 196 BID), Visit 7 (postoperative Day 18)
  Proportion of subjects with complete resolution of AC flare: 56.7%
[1]; [4]
  Proportion of subjects with complete resolution of AC cells: 21.7%
  Proportion of subjects with complete resolution of AC cells and flare combined: 20.0%
  Proportion of subjects with complete resolution of AC flare: 41.7%
[1]; 1% BID, Visit 6 (postoperative Day 15)
  Proportion of subjects with complete resolution of AC flare: 66.7%
[1]; [5]
  Proportion of subjects with complete resolution of AC cells: 41.7%
  Proportion of subjects with complete resolution of AC cells and flare combined: 41.7%
[1]; 2% BID, Visit 5 (postoperative Day 8)
  Proportion of subjects with complete resolution of AC flare: 50.0%
[1]; 2% BID, Visit 6 (postoperative Day 15)
  Proportion of subjects with complete resolution of AC flare: 60.7%
[1]; [6]
  Proportion of subjects with complete resolution of AC cells: 21.4%
  Proportion of subjects with complete resolution of AC cells and flare combined: 21.4%
  Proportion of subjects with complete resolution of AC flare: 42.9%
[1]; 2% QD, Visit 6 (postoperative Day 15)
  Proportion of subjects with complete resolution of AC cells and flare combined: 35.7%
[1]; 2% QID (printed 2% ND), Visit 6 (postoperative Day 15)
  Proportion of subjects with complete resolution of AC flare: 66.7%
[1]; [7]
  Proportion of subjects with complete resolution of AC cells: 28.3%
  Proportion of subjects with complete resolution of AC cells and flare combined: 26.7%
  Proportion of subjects with complete resolution of AC flare: 51.7%
[1]; [8]
  Proportion of subjects with complete resolution of AC cells: 43.3%
  Proportion of subjects with complete resolution of AC cells and flare combined: 41.7%
[1]; [9]
  Proportion of subjects with complete resolution of AC cells: 53.396%
  Proportion of subjects with complete resolution of AC cells and flare combined: 53.3%
  Proportion of subjects with complete resolution of AC flare: 66.7%
[1]; 3% BID, Visit 4 (postoperative Day 3)
  Proportion of subjects with complete resolution of AC flare: 38.3%
[1]; [10]
  Proportion of subjects with complete resolution of AC cells: 25.0%
  Proportion of subjects with complete resolution of AC cells and flare combined: 23.3%
  Proportion of subjects with complete resolution of AC flare: 51.7%
[1]; [11]
  Proportion of subjects with complete resolution of AC cells: 38.3%
  Proportion of subjects with complete resolution of AC cells and flare combined: 38.3%
  Proportion of subjects with complete resolution of AC flare: 51.7%
[1]; [12]
  Proportion of subjects with complete resolution of AC cells: 43.3%
  Proportion of subjects with complete resolution of AC cells and flare combined: 43.3%
  Proportion of subjects with complete resolution of AC flare: 56.7%
[1]; 3% QD, Visit 4 (postoperative Day 3)
  Proportion of subjects with complete resolution of AC flare: 35.6%
[1]; [13]
  Proportion of subjects with complete resolution of AC cells: 25.4%
  Proportion of subjects with complete resolution of AC cells and flare combined: 23.7%
  Proportion of subjects with complete resolution of AC flare: 55.9%
[1]; [14]
  Proportion of subjects with complete resolution of AC cells: 47.5%
  Proportion of subjects with complete resolution of AC cells and flare combined: 47.5%
  Proportion of subjects with complete resolution of AC flare: 66.1%
[1]; [15]
  Proportion of subjects with complete resolution of AC cells: 47.5%
  Proportion of subjects with complete resolution of AC cells and flare combined: 47.5%
  Proportion of subjects with complete resolution of AC flare: 57.6%
[1]; [16]
  Proportion of subjects with complete resolution of AC cells: 30.0%
  Proportion of subjects with complete resolution of AC cells and flare combined: 30.0%
  Proportion of subjects with complete resolution of AC flare: 55.0%
[1]; [17]
  Proportion of subjects with complete resolution of AC cells: 38.3%
  Proportion of subjects with complete resolution of AC cells and flare combined: 36.7%
  Proportion of subjects with complete resolution of AC flare: 61.7%
[1]; [18]
  Proportion of subjects with complete resolution of AC cells: 46.7%
  Proportion of subjects with complete resolution of AC cells and flare combined: 45.0%
  Proportion of subjects with complete resolution of AC flare: 58.3%
[1]; Visit 4: 1% BID, 2% QID, 3% QD, 3% QID
  Anterior chamber cells, change from baseline, compared to vehicle: Statistically significant mean decreases
[1]; Visit 5: 1% BID, 2% QD, 2% QID, 3% QD, 3% BID, 3% QID
  Anterior chamber cells, change from baseline, compared to vehicle: Statistically significant mean decreases
[1]; Visit 6: 1% BID, 2% QID, QD, 3% BID, 3% QID
  Anterior chamber cells, change from baseline, compared to vehicle: Statistically significant mean decreases
[1]; Visit 7: 1% BID. 2% QD, 2% QID, QD, 3% BID, 3% QID
  Anterior chamber cells, change from baseline, compared to vehicle: Statistically significant mean decreases
[2]; 2% QID and 3% QD groups, Visit 4 (postoperative Day 3) to Visit 7 (postoperative Day 18)
  Mean IOP values among groups: lowest mean IOP values
[2]; any dose groups at any study visits
  Proportion of subjects with mean IOP changes from baseline of ≧5 mmHg or ≧10 mmHg, compared to vehicle: no statistically significant differences
[3]
  Production of COX-2 by IL-1β-induced HConF: successfully inhibits

From US20120065228A1, “COMPOSITIONS AND METHODS FOR TREATING, CONTROLLING, REDUCING, OR AMELIORATING OCULAR INFLAMMATORY WITH LOWER RISK OF INCREASED INTRAOCULAR PRESSURE” (priority 2007, published 2012)
